# Source: PubChem BioAssay (NCI)
#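 Briefly, cells in 96-well plates were exposed to five compound concentrations for 48 h, and endpoints were estimated by linear interpolation. Definition used: TGI = concentration required for complete inhibition of growth.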
# Assays:
# Experiment in all cases: growth of human tumour cells (NCI), 48 h
# 786-0 renal = tested on: 786-0 renal
# A498 renal = tested on: A498 renal
# A549 NSCLC = tested on: A549 NSCLC
# ACHN renal = tested on: ACHN renal
# CCRF-CEM leukemia = tested on: CCRF-CEM leukemia
# COLO 205 colon = tested on: COLO 205 colon
# DU-145 prostate = tested on: DU-145 prostate
# HCC-2998 colon = tested on: HCC-2998 colon
# HCT-116 colon = tested on: HCT-116 colon
# HCT-15 colon = tested on: HCT-15 colon
# HL-60(TB) leukemia = tested on: HL-60(TB) leukemia
# HOP-62 NSCLC = tested on: HOP-62 NSCLC
# HOP-92 NSCLC = tested on: HOP-92 NSCLC
# HT29 colon = tested on: HT29 colon
# IGROV1 ovarian = tested on: IGROV1 ovarian
# K-562 leukemia = tested on: K-562 leukemia
# KM12 colon = tested on: KM12 colon
# LOX IMVI melanoma = tested on: LOX IMVI melanoma
# M14 melanoma = tested on: M14 melanoma
# MALME-3M melanoma = tested on: MALME-3M melanoma
# MCF7 breast = tested on: MCF7 breast
# MDA-MB-231 breast = tested on: MDA-MB-231 breast
# MDA-MB-435 = tested on: MDA-MB-435
# MDA-N = tested on: MDA-N
# MOLT-4 leukemia = tested on: MOLT-4 leukemia
# NCI-H226 lung = tested on: NCI-H226 lung
# NCI-H23 lung = tested on: NCI-H23 lung
# NCI-H460 lung = tested on: NCI-H460 lung
# NCI-H522 lung = tested on: NCI-H522 lung
# NCI/ADR-RES ovarian = tested on: NCI/ADR-RES ovarian
# OVCAR-3 ovarian = tested on: OVCAR-3 ovarian
# OVCAR-4 ovarian = tested on: OVCAR-4 ovarian
# OVCAR-8 ovarian = tested on: OVCAR-8 ovarian
# PC-3 prostate = tested on: PC-3 prostate
# RXF 393 renal = tested on: RXF 393 renal
# SF-268 CNS = tested on: SF-268 CNS
# SF-295 CNS = tested on: SF-295 CNS
# SF-539 CNS = tested on: SF-539 CNS
# SK-MEL-2 melanoma = tested on: SK-MEL-2 melanoma
# SK-MEL-28 melanoma = tested on: SK-MEL-28 melanoma
# SK-MEL-5 melanoma = tested on: SK-MEL-5 melanoma
# SK-OV-3 ovarian = tested on: SK-OV-3 ovarian
# SN12C renal = tested on: SN12C renal
# SNB-19 CNS = tested on: SNB-19 CNS
# SNB-75 CNS = tested on: SNB-75 CNS
# SR leukemia = tested on: SR leukemia
# SW-620 colon = tested on: SW-620 colon
# T-47D breast = tested on: T-47D breast
# TK-10 renal = tested on: TK-10 renal
# U251 CNS = tested on: U251 CNS
# UACC-257 melanoma = tested on: UACC-257 melanoma
# UACC-62 melanoma = tested on: UACC-62 melanoma
# UO-31 renal = tested on: UO-31 renal
# EKVX NSCLC = tested on: EKVX NSCLC
# HS 578T breast = tested on: HS 578T breast
# OVCAR-5 ovarian = tested on: OVCAR-5 ovarian
# RPMI-8226 leukemia = tested on: RPMI-8226 leukemia
structure (smiles),measurement,setting,value
CC(=O)OCC1OC(n2c(C)c(C(C)=O)c(-c3ccc(Cl)cc3)c(C#N)c2=S)C(OC(C)=O)C(OC(C)=O)C1OC(C)=O (stereo not drawn),TGI,786-0 renal,> 100 µM
same,TGI,A498 renal,> 100 µM
same,TGI,A549 NSCLC,> 100 µM
same,TGI,ACHN renal,> 100 µM
same,TGI,CCRF-CEM leukemia,> 100 µM
same,TGI,COLO 205 colon,> 100 µM
same,TGI,DU-145 prostate,> 100 µM
same,TGI,HCC-2998 colon,> 100 µM
same,TGI,HCT-116 colon,> 100 µM
same,TGI,HCT-15 colon,> 100 µM
same,TGI,HL-60(TB) leukemia,> 100 µM
same,TGI,HOP-62 NSCLC,> 100 µM
same,TGI,HOP-92 NSCLC,> 100 µM
same,TGI,HT29 colon,> 100 µM
same,TGI,IGROV1 ovarian,> 100 µM
same,TGI,K-562 leukemia,> 100 µM
same,TGI,KM12 colon,> 100 µM
same,TGI,LOX IMVI melanoma,> 100 µM
same,TGI,M14 melanoma,> 100 µM
same,TGI,MALME-3M melanoma,> 100 µM
same,TGI,MCF7 breast,> 100 µM
same,TGI,MDA-MB-231 breast,> 100 µM
same,TGI,MDA-MB-435,> 100 µM
same,TGI,MDA-N,> 100 µM
same,TGI,MOLT-4 leukemia,> 100 µM
same,TGI,NCI-H226 lung,> 100 µM
same,TGI,NCI-H23 lung,> 100 µM
same,TGI,NCI-H460 lung,> 100 µM
same,TGI,NCI-H522 lung,> 100 µM
same,TGI,NCI/ADR-RES ovarian,> 100 µM
same,TGI,OVCAR-3 ovarian,> 100 µM
same,TGI,OVCAR-4 ovarian,> 100 µM
same,TGI,OVCAR-8 ovarian,> 100 µM
same,TGI,PC-3 prostate,> 100 µM
same,TGI,RXF 393 renal,> 100 µM
same,TGI,SF-268 CNS,> 100 µM
same,TGI,SF-295 CNS,> 100 µM
same,TGI,SF-539 CNS,> 100 µM
same,TGI,SK-MEL-2 melanoma,> 100 µM
same,TGI,SK-MEL-28 melanoma,> 100 µM
same,TGI,SK-MEL-5 melanoma,> 100 µM
same,TGI,SK-OV-3 ovarian,> 100 µM
same,TGI,SN12C renal,> 100 µM
same,TGI,SNB-19 CNS,> 100 µM
same,TGI,SNB-75 CNS,> 100 µM
same,TGI,SR leukemia,> 100 µM
same,TGI,SW-620 colon,> 100 µM
same,TGI,T-47D breast,> 100 µM
same,TGI,TK-10 renal,> 100 µM
same,TGI,U251 CNS,> 100 µM
same,TGI,UACC-257 melanoma,> 100 µM
same,TGI,UACC-62 melanoma,> 100 µM
same,TGI,UO-31 renal,> 100 µM
C=CCC(NCc1ccccc1)[C@H](OCc1ccccc1)[C@@H]1COC(C)(C)O1 (stereo partly drawn),TGI,786-0 renal,> 100 µM
same,TGI,A498 renal,> 100 µM
same,TGI,A549 NSCLC,> 100 µM
same,TGI,ACHN renal,> 100 µM
same,TGI,CCRF-CEM leukemia,69.9 µM
same,TGI,COLO 205 colon,41.3 µM
same,TGI,DU-145 prostate,> 100 µM
same,TGI,EKVX NSCLC,> 100 µM
same,TGI,HCT-116 colon,> 100 µM
same,TGI,HCT-15 colon,64.9 µM
same,TGI,HOP-62 NSCLC,> 100 µM
same,TGI,HOP-92 NSCLC,49 µM
same,TGI,HS 578T breast,> 100 µM
same,TGI,HT29 colon,27.1 µM
same,TGI,IGROV1 ovarian,> 100 µM
same,TGI,K-562 leukemia,56.4 µM
same,TGI,KM12 colon,> 100 µM
same,TGI,LOX IMVI melanoma,72 µM
same,TGI,M14 melanoma,> 100 µM
same,TGI,MALME-3M melanoma,76.7 µM
same,TGI,MCF7 breast,> 100 µM
same,TGI,MDA-MB-231 breast,> 100 µM
same,TGI,MDA-MB-435,> 100 µM
same,TGI,MDA-N,> 100 µM
same,TGI,MOLT-4 leukemia,83.1 µM
same,TGI,NCI-H226 lung,34.1 µM
same,TGI,NCI-H23 lung,> 100 µM
same,TGI,NCI/ADR-RES ovarian,> 100 µM
same,TGI,OVCAR-3 ovarian,> 100 µM
same,TGI,OVCAR-4 ovarian,> 100 µM
same,TGI,OVCAR-5 ovarian,> 100 µM
same,TGI,OVCAR-8 ovarian,> 100 µM
same,TGI,PC-3 prostate,> 100 µM
same,TGI,RPMI-8226 leukemia,44.4 µM
same,TGI,SF-268 CNS,> 100 µM
same,TGI,SF-295 CNS,99.6 µM
same,TGI,SK-MEL-2 melanoma,46 µM
same,TGI,SK-MEL-28 melanoma,> 100 µM
same,TGI,SK-MEL-5 melanoma,55.2 µM
same,TGI,SK-OV-3 ovarian,> 100 µM
same,TGI,SN12C renal,> 100 µM
same,TGI,SNB-19 CNS,> 100 µM
same,TGI,SNB-75 CNS,> 100 µM
same,TGI,SR leukemia,55 µM
same,TGI,SW-620 colon,> 100 µM
same,TGI,TK-10 renal,70.8 µM
same,TGI,U251 CNS,> 100 µM
same,TGI,UACC-257 melanoma,58.1 µM
same,TGI,UACC-62 melanoma,> 100 µM
same,TGI,UO-31 renal,83.1 µM
